# Experiment: Induction of apoptosis in human HMC-1.2 cells assessed as apoptotic cells at 1 uM after 48 hrs by TUNEL staining (reference value: 0.849%)
# Format: functional
structure (smiles),measurement,value
COc1ccc(-c2cnc3[nH]cc(-c4ccc(OC)c(OC)c4)c3c2)cc1OC,Activity,13.3%

# — ChEMBL document CHEMBL3352338, “Development and biological evaluation of potent and selective c-KIT(D816V) inhibitors” (J Med Chem, 2014)
